Results: patent US20240228572A1 (i2o Therapeutics, Inc., priority 2020, published 2024)
*1 amine or outer side, *2 acyl side, *3 side chain or, on linkers, in order; H or OH if unused. Where a SMILES comes first, the peptide text is derived from it. Side-chain parts run from the residue outwards. [ ]: non-standard residue; d: D form. The star is where a group is joined. C20 diacid = O=C(O)CCCCCCCCCCCCCCCCCCC(=O)*; γGlu = O=C(O)[C@H](CCC(=O)[*:2])N[*:1]; AEEA = NCCOCCOCC(=O)O; Aib = CC(C)(N)C(=O)O

Legend:
rat GCGR = molecular target: T1, rat GCGR (Rattus norvegicus, UniProt P30082); test: cAMP accumulation assay, CHO-K1 cells expressing rat GCGR; type: cell-based
T1 construct: A cDNA fragment encoding the full-length open reading frame of the rat GCGR; expressed in transfected cells; host or cells: CHO-K1, pcDNA3.1+, Lipofectamine 2000
T1 sequence (P30082 27-485): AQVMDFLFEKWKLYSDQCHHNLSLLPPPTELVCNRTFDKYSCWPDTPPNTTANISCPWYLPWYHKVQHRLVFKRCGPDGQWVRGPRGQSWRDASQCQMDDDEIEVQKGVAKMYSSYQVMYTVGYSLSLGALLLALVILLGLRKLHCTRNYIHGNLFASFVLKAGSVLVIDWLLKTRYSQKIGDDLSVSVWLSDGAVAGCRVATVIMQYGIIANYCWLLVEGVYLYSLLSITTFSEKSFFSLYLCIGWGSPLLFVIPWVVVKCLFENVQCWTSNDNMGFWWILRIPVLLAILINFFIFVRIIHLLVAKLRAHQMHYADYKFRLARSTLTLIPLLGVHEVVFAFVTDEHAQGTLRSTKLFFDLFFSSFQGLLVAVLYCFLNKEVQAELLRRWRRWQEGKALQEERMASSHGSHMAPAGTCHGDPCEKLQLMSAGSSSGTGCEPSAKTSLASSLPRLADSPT
Text: In the presence of the non-specific cAMP/cGMP phosphodiesterase inhibitor, 3-isobutyl-1-methylxanthine (IBMX), accumulating cAMP can be measured in vitro using common detection methods. Thus, it is possible to estimate an in vitro potency (pEC50) for peptides activating each of these receptors using fit dose-response curves for cAMP accumulation.
A cDNA fragment encoding the full-length open reading frame of the cynomolgus monkey GLP-1R (Genebank accession #XM_028847603 was cloned into pcDNA3.1+ for expression in CHO-K1 cells. A cDNA fragment encoding the full-length open reading frame of the human GCGR (Genebank accession #NM_000160 was cloned into pcDNA3.1+ for expression in CHO-K1 cells. A cDNA fragment encoding the full-length open reading frame of the rat GCGR (Genebank accession #NM_12091 was cloned into pcDNA3.1+ for expression in CHO-K1 cells. A cDNA fragment encoding the full-length open reading frame of the cynomolgus monkey GCGR (Genebank accession #XM_005585255 was cloned into pcDNA3.1+ for expression in CHO-K1 cells. […]
Peptides were serially diluted 4-fold in assay buffer to final concentrations ranging from 1×10^−9 M to 9.5×10^−16 M. Two assay controls consisting of 50 mcM forskolin (cAMP system maximum) or assay buffer only (cAMP system minimum) were also prepared. […] Plates were read on an Envision fluorescent plate reader (PerkinElmer). […]

[1] = Metabolic stability in rat kidney brush border membranes (kBBM); type: in vitro ADME; settings: 1 mcM peptide, 50 mcg protein/mL, 37° C., pH 7.4, read-out: kBBM t½ (converted)
Description: Brush border membranes from rat and human kidney tissue were prepared via centrifugation and stored at −70° C. Thawed stocks of rat or human kBBM were diluted to the appropriate concentration in 25 mM HEPES buffer (pH 7.4) containing 1% casein and aliquoted into a 96-well plate. The kBBM solutions were pre-warmed for 10 minutes at 37° C. Reactions were initiated by the addition of test peptide (1 mcM final concentration) also dissolved in 25 mM HEPES buffer (pH 7.4) containing 1% casein. The final concentration of kBBM in each incubation was 50 mcg protein/mL. Reactions were maintained at 37° C. in a shaking water bath. At 0, 0.25, 0.5, 1.0, 2.0, and 4.0 h post-initiation, 30 mcL of the reaction mixture was removed and placed into a 96-well plate containing 120 mcL of ice-cold methanol containing 2.5% formic acid. Quenched samples were centrifuged at 2178×g for 10 min and then a portion of the supernatants were transferred to a clean 96-well plate and diluted 1:1 with water.

[2] = Stability in subcutaneous (SC) tissue homogenates, rat; type: in vitro ADME; settings: subcutaneous (SC) tissue homogenate, pH 7.4, read-out: (H)SC tissue stability t½ (converted)
Description: In vitro incubations in subcutaneous (SC) tissue homogenates were used to characterize the ability of peptides to resist pre-systemic degradation by proteases and peptidases after SC administration. In vivo nonclinical studies have shown that peptidase activity in the SC space can limit the bioavailability of a peptide after SC administration. Peptides with high SC bioavailability are stable in this assay, while peptides with low SC bioavailability are unstable in this assay.
Human SC tissue was homogenized in cold 25 mM HEPES buffer (pH 7.4, 10-fold volume based on sample weight), and then filtered through a double layer of cheesecloth. The filtrates were aliquoted, flash frozen on a methanol/dry ice bath and stored at −80° C. The protein concentration of each pooled batch was determined using the BCA protein assay. Thawed stocks of human SC tissue homogenates were diluted to 1.0 mg protein/mL in 25 mM HEPES buffer (pH 7.4) and aliquoted into a 96-well plate. The diluted SC homogenates were pre-warmed for 10 minutes at 37° C. Reactions were initiated by the addition of test peptide (10 mcM final concentration) also dissolved in 25 mM HEPES buffer (pH 7.4). Reactions were maintained at 37° C. in a shaking water bath. […] Samples were analyzed by UPLC-MS/MS.

Work on CC(C)C[C@H](NC(=O)[C@H](Cc1ccc(O)cc1)NC(=O)[C@H](CCCCN)NC(=O)[C@H](CO)NC(=O)[C@H](Cc1ccc(O)cc1)NC(=O)[C@H](CC(=O)O)NC(=O)[C@H](CO)NC(=O)[C@@H](NC(=O)[C@H](Cc1ccccc1)NC(=O)[C@@H](NC(=O)CNC(=O)[C@H](Cc1c[nH]cn1)NC(=O)[C@H](CO)NC(=O)[C@@H](N)Cc1ccc(O)cc1)[C@@H](C)O)[C@@H](C)O)C(=O)N[C@@H](CC(=O)O)C(=O)NC(C)(C)C(=O)N[C@@H](CCCCN)C(=O)N[C@@H](Cc1ccc(O)cc1)C(=O)N[C@@H](C)C(=O)N[C@@H](CCC(N)=O)C(=O)N[C@@H](CCCCNC(=O)CC[C@H](NC(=O)CC[C@H](NC(=O)COCCOCCNC(=O)CCCCCCCCCCCCCCCCCCC(=O)O)C(=O)O)C(=O)O)C(=O)N[C@@H](Cc1ccccc1)C(=O)N[C@H](C(=O)NC(C)(C)C(=O)N[C@@H](Cc1c[nH]c2ccccc12)C(=O)N[C@@H](CC(C)C)C(=O)N[C@@H](CCC(=O)O)C(=O)N[C@@H](CC(=O)O)C(=O)N[C@@H](CCC(=O)O)C(=O)N1CCC[C@H]1C(=O)N[C@@H](CO)C(=O)N[C@@H](CO)C(=O)NCC(=O)N[C@@H](C)C(=O)N1CCC[C@H]1C(=O)N1CCC[C@H]1C(=O)N1CCC[C@H]1C(=O)N[C@@H](CO)C(=O)O)C(C)C [Compound A6] (H-YSHGTFTSDYSKYLD[Aib]KYAQK([γGlu-γGlu-AEEA-C20 diacid])FV[Aib]WLEDEPSSGAPPPS-OH; N-terminus assumed) yielded an EC50 (rat GCGR) of 50.1 pM, a half-life at 1 mcM [1] of 6.6 h and a half-life at 10 mcM [2] of 9 h.
